# Laboratory results as given in patent US10440955B2, “Methods comprising a biocidal polyamine” (Curza Global, LLC, priority 2013, dated 2019).
# Structures can show the parent of a compound that is named as a salt. Where two headings read alike, the source gives them in different places.
# Key:
# MRSA = test: MIC, 96-well CAMHB, 10^5 to 10^2 CFU/mL in 24 hours; assay type: cell-based, Staphylococcus aureus; conditions: for MIC: Staphylococcus aureus, MRSA, read-out: MIC (MRSA)
# Method: (§1) To determine the MIC of polyamine compounds, the protocol described herein was used.
# In brief, a 0.5 McFarland of each bacterial isolate was made. A 0.5 McFarland is a measure of turbidity in a liquid sample that contains approximately 1×10^∧8 CFU/mL. The 0.5 McFarland standard was diluted in cation adjusted Mueller Hinton Broth (CAMHB), and 50 μL of broth were added to a well of a 96-well plate. In addition, 50 μL of CAMHB that contained a desired concentration of antimicrobial were also added to the well for a final volume of 100 μL and a final concentration of approximately 5×10^4 CFU/well (which equated to approximately 5×10^5 CFU/mL). Each well contained a desired amount of polyamine compound in order to experimentally determine the MIC. Each 96-well plate was incubated at 37° C. for 24 hours. The contents of each well were plated on tryptic soy agar (TSA). TSA plates were incubated for 37° C. for 24 hours after which the number of CFU were counted and used to calculate the CFU/mL that remained after exposure to varying concentrations of compound. This procedure was repeated n=8 times for each concentration of antimicrobial. […]
# P. aeruginosa = test: as above; assay type: cell-based, Pseudomonas aeruginosa; conditions: for MIC: Pseudomonas aeruginosa
# Method: as §1
# In brief, a 0.5 McFarland of each bacterial isolate was made. A 0.5 McFarland is a measure of turbidity in a liquid sample that contains approximately 1×10^∧8 CFU/mL. The 0.5 McFarland standard was diluted in cation adjusted Mueller Hinton Broth (CAMHB), and 50 μL of broth were added to a well of a 96-well plate. In addition, 50 μL of CAMHB that contained a desired concentration of antimicrobial were also added to the well for a final volume of 100 μL and a final concentration of approximately 5×10^4 CFU/well (which equated to approximately 5×10^5 CFU/mL). Each well contained a desired amount of polyamine compound in order to experimentally determine the MIC. Each 96-well plate was incubated at 37° C. for 24 hours. The contents of each well were plated on tryptic soy agar (TSA). TSA plates were incubated for 37° C. for 24 hours after which the number of CFU were counted and used to calculate the CFU/mL that remained after exposure to varying concentrations of compound. This procedure was repeated n=8 times for each concentration of antimicrobial.
# L-929 cells (ATCC CCL-1) = test: Minimal Essential Media (MEM) Elution cytotoxicity test; assay type: cell-based; conditions: Table 10A
# Method: Summary: The Minimal Essential Media (MEM) Elution test was designed to determine the cytotoxicity of extractable substances. The test article was added to cell monolayers and incubated. The cell monolayers were examined and scored based on the degree of cellular destruction.
# Acceptance Criteria: The United States Pharmacopeia & National Formulary (USP <87>) states that the test article meets the requirements, or receives a passing score (Pass) if the reactivity grade is not greater than grade 2 or a mild reactivity.
# Acceptance criteria were based upon the negative and media controls receiving “0” reactivity grades and positive controls receiving a 3-4 reactivity grades (moderate to severe).
# The cell monolayers were examined microscopically. The wells were scored as to the degree of discernable morphological cytotoxicity on a relative scale of 0 to 4:
# The results from the three wells were averaged to give a final cytotoxicity score.
# […] This initial concentration was then diluted 1: 2, 1:4, 1:8, and 1:16. Multiple well cell culture plates were seeded with a verified quantity of industry standard L-929 cells (ATCC CCL-1) and incubated until approximately 80% confluent. The test articles and control extracts were added to the cell monolayers in triplicate. The cells were incubated at 37±1° C. with 5±1% CO2 for 48±3 hours.
# [1] = Table 5, read-out: MIC (P. aeruginosa)
# [2] = read-out: MIC (P. aeruginosa), Table 5
Compound,MIC (MRSA; Table 5),MIC (P. aeruginosa; [1]),MIC (MRSA),further results
"c1cc(CNCCCNCCCNCC2CCCCC2)cc(CNCCCNCCCNCC2CCCCC2)c1 [CZ-97, N^1,N^1′-(1,3-phenylenebis(methylene))bis(N^3-(3-((cyclohexylmethyl)-amino)propyl)propane-1,3-diamine)]",< 50 µM,< 50 µM,–,–
"CC(C)CNCCCNCCCNCc1cc(Br)cc(CNCCCNCCCNCC(C)C)c1 [CZ-109, N^1,N^1′-((5-bromo-1,3-phenylene)bis(methylene))bis(N^3-(3-(isobutylamino)propyl)propane-1,3-diamine)]",< 50 µM,< 50 µM,–,–
"CC(C)CNCCCNCC(C)(C)CNCc1cc(CNCC(C)(C)CNCCCNCC(C)C)cc(-c2ccccc2)c1 [CZ-112, N^1,N^1′-([1,1′-biphenyl]-3,5-diylbis(methylene))bis(N^3-(3-(isobutylamino)propyl)-2,2-dimethylpropane-1,3-diamine)]",< 50 µM,< 50 µM,–,–
"CC(C)CNCCCNCCCCNCc1cc(CNCCCCNCCCNCC(C)C)cc(-c2ccccc2)c1 [CZ-111, N^1,N^1′-([1,1′-biphenyl]-3,5-diylbis(methylene))bis(N^4-(3-(isobutylamino)propyl)butane-1,4-diamine)]",< 50 µM,< 50 µM,–,–
"CCC(CC)COc1cc(CNCCCNCCCNCC(C)C)cc(CNCCCNCCCNCC(C)C)c1 [CZ-91, N^1,N^1′-((5-(2-ethylbutoxy)-1,3-phenylene)bis(methylene))bis(N^3-(3-(isobutylammonio)propyl)propane-1,3-diaminium) chloride]",–,–,< 50 µM,MIC (P. aeruginosa; [2]): < 50 µM
"NCCCCCCCCCCCCNCc1ccccc1 [CZ-5, N^1-benzyldodecane-1,12-diamine, hydrochloride salt]",–,–,> 100 µM,–
"CCCCCCNCCCNCCCNCc1cccc(CNCCCNCCCNCCCCCC)c1 [CZ-113, N^1,N^1′-(1,3-phenylenebis(methylene))bis(N^3-(3-(hexylamino)propyl)propane-1,3-diamine)]",< 50 µM,< 50 µM,–,–
NCCCNCCCNCc1cc(CNCCCNCCCN)cc(OC2CCCCC2)c1 [CZ-105],< 50 µM,50 to 100 µM,–,–
NCCCNCCCNCc1cccc(CNCCCNCCCN)c1 [CZ-25 (Bz)],< 50 µM,–,–,–
"NCCCNCCCNCc1cc(CNCCCNCCCN)cc(Oc2ccccc2)c1 [CZ-74, N^1,N^1′-((5-phenoxy-1,3-phenylene)bis(methylene))bis(N^3-(3-aminopropyl)propane-1,3-diamine), hydrochloride salt]",–,–,< 50 µM,MIC (P. aeruginosa; [2]): < 50 µM
"NCCCNCCCNCc1cc(CNCCCNCCCN)cc(-c2cc(C(F)(F)F)cc(C(F)(F)F)c2)c1 [CZ-70, N^1,N^1′-((3′,5′-bis(trifluoromethyl)-[1,1′-biphenyl]-3,5-diyl)bis(methylene))bis(N^3-(3-aminopropyl)propane-1,3-diamine), hydrochloride salt]",–,–,< 50 µM,MIC (P. aeruginosa; [2]): < 50 µM
"CC(C)CNCCCNCCCNCc1cc(CNCCCNCCCNCC(C)C)cc(OC2CCCCC2)c1 [CZ-104, N^1,N^1′-((5-(cyclohexyloxy)-1,3-phenylene)bis(methylene))bis(N^3-(3-(isobutylamino)propyl)propane-1,3-diamine)]",< 50 µM,–,–,MIC (P. aeruginosa) (P. aeruginosa; Table 5): ++ to +++
"NCCCCCCCCCCCCNCc1cc(CNCCCCCCCCCCCCN)cc(-c2ccccc2)c1 [CZ-115, N^1,N^1′-([1,1′-biphenyl]-3,5-diylbis(methylene))bis(dodecane-1,12-diamine)]",< 50 µM,< 50 µM,–,–
"CC(C)CNCCCNCCCNCc1cc(CNCCCNCCCNCC(C)C)cc(-c2cnn(C)c2)c1 [CZ-102, N^1,N^1′-((5-(1-methyl-1H-pyrazol-4-yl)-1,3-phenylene)bis(methylene))bis(N3-(3-(isobutylamino)propyl)propane-1,3-diamine)]",< 50 µM,50 to 100 µM,–,–
"O=C1NCCCN1CCCNCc1cc(CNCCCN2CCCNC2=O)cc(-c2ccccc2)c1 [CZ-89, 1,1′-((([1,1′-biphenyl]-3,5diylbis(methylene))bis(azanediyl))bis(propane-3,1-diyl))bis(tetrahydropyrimidin-2(1H)-one)]",< 50 µM,< 50 µM,–,–
"CCCCOc1cc(CNCCCNCCCN)cc(CNCCCNCCCN)c1 [CZ-76, N^1,N^1′-((5-butoxy-1,3-phenylene)bis(methylene))bis(N3-(3-aminopropyl)propane-1,3-diamine), hydrochloride salt]",–,–,< 50 µM,MIC (P. aeruginosa; [2]): 50 to 100 µM
"CC(C)Oc1ccc(-c2cc(CNCCCNCCCN)cc(CNCCCNCCCN)c2)cc1CNCCCNCCCN [CZ-66, N^1,N^1′,N^1″-((4′-isopropoxy-[1,1′-biphenyl]-3,3′,5-triyl)tris(methylene))-tris(N^3-(3-aminopropyl)propane-1,3-diamine), hydrochloride salt]",–,–,–,"Results Pass/Fail (L-929 cells (ATCC CCL-1); 25 μg/mL): Fail (a numerical grade greater than 2 is considered a cytotoxic effect, or a failing score (Fail)); Results Pass/Fail (L-929 cells (ATCC CCL-1); dilution 1:2 of 25 μg/mL): Fail (a numerical grade greater than 2 is considered a cytotoxic effect, or a failing score (Fail)); Results Pass/Fail (L-929 cells (ATCC CCL-1); dilution 1:4 of 25 μg/mL): Pass (receives a passing score (Pass) if the reactivity grade is not greater than grade 2 or a mild reactivity); Results Pass/Fail (L-929 cells (ATCC CCL-1); dilution 1:8 of 25 μg/mL): Pass (receives a passing score (Pass) if the reactivity grade is not greater than grade 2 or a mild reactivity); Results Pass/Fail (L-929 cells (ATCC CCL-1); dilution 1:16 of 25 μg/mL): Pass (receives a passing score (Pass) if the reactivity grade is not greater than grade 2 or a mild reactivity)"
NCCCNC(=O)c1cccc(C(=O)NCCCN)c1 [CZ-41],> 100 µM,–,–,–
"CC(C)(C)OC(=O)NCCCNCCCNCc1cccc(CNCCCNCCCNC(=O)OC(C)(C)C)c1 [CZ-27, di-tert-butyl (((((1,3-phenylenebis(methylene))bis(azanediyl))bis(propane-3,1-diyl))bis(azanediyl))bis(propane-3,1-diyl))dicarbamate]",> 100 µM,–,–,–
"CC(C)Oc1cc(CNCCCNCCCN)cc(CNCCCNCCCN)c1 [CZ-93, N^1,N^1′-((5-isopropoxy-1,3-phenylene)bis(methylene))bis(N^3-(3-aminopropyl)propane-1,3-diamine)]",< 50 µM,< 50 µM,–,–
"N^1,N^1′,N^1″-((4′-(trifluoromethyl)-[1,1′-biphenyl]-3,3′,5-triyl)tris(methylene))tris(N3-(3-aminopropyl)propane-1,3-diamine), hydrochloride salt [CZ-69]",–,–,–,MIC (MRSA) (MRSA; Table 5): +++ (+++ = 50 μM > MIC. MIC results of “>n μM” or “<n μM” will also be designated as +++ if n <50.); MIC (P. aeruginosa) (P. aeruginosa; Table 5): +++ (+++ = 50 μM > MIC. MIC results of “>n μM” or “<n μM” will also be designated as +++ if n <50.)
"CN(C)CCCCCCCCCCCCN(C)Cc1ccccc1 [CZ-10, N^1-Benzyl-N^1,N^12,N^12-trimethyldodecane-1,12-diamine, hydrochloride salt]",–,–,> 100 µM,–
"NCCCNCCCNCc1cc(CNCCCNCCCN)cc(OCc2ccccc2)c1 [CZ-95, N^1,N^1′-((5-(Benzyloxy)-1,3-phenylene)bis(methylene))bis(N^3-(3-aminopropyl)propane-1,3-diamine), hydrochloride salt]",–,–,< 50 µM,MIC (P. aeruginosa; [2]): < 50 µM
"NCCCCCCNCc1ccccc1 [CZ-9, N^1-benzylhexane-1,6-diamine, hydrochloride salt]",–,–,> 100 µM,–
"NCCCNCCCNCc1cc(CO)cc(CNCCCNCCCN)c1 [CZ-53, (3,5-bis(((3-((3-aminopropyl)amino)propyl)amino)methyl)phenyl)-methanol, hydrochloride salt]",–,–,–,MIC (P. aeruginosa) (P. aeruginosa; Table 5): ++ to +++
"NCCCCNCc1ccccc1 [CZ-3, N^1-benzylbutane-1,4-diaminium chloride]",–,–,–,MIC (P. aeruginosa; [2]): > 100 µM
